Source: article PMC10672332, “Lecanicilliums A–F, Thiodiketopiperazine-Class Alkaloids from a Mangrove Sediment-Derived Fungus Lecanicillium kalimantanense” (Marine Drugs, 2023)
In brackets after ≈: the same amount, converted by molar mass. Like-named read-outs stand apart in the source and are kept apart here.

Tests used:
Micrococcus luteus [1] = assay: Antibacterial assay, micro broth dilution; type: cell-based; conditions: read-out: Antibacterial Activity (MIC) M. luteus
Description: (§1) The micro broth dilution method was used to evaluate the antibacterial activities of compounds 1–19 against the growth of eight common pathogens: Bacillus subtilis BS01, Micrococcus luteus, Escherichia coli ATCC 25922, Staphylococcus aureus ATCC 6538, S. aureus MRSA, Streptococcus agalactiae ATCC 13813, S. iniae, and Pseudomonas aeruginosa ATCC 9027 in 96-well polystyrene plates. Vancomycin and ciprofloxacin were used as positive controls. Briefly, wells containing 100 μL bacteria dilutions (OD600 = 0.01) in Luria–Bertani (LB) medium were supplemented with different concentrations of 1–19 (80, 40, 20, 10, 5, 2.5, 1.25, and 0.625 μg/mL), vancomycin, and ciprofloxacin (40, 20, 10, 5, 2.5, 1.25, 0.625, and 0.3125 μg/mL), respectively. The MICs were determined after 24 hours’ incubation at 37 °C with the tested compounds.

[2] = tested on: Escherichia coli ATCC 25922; assay: Antibacterial assay, micro broth dilution; type: cell-based; conditions: read-out: Antibacterial Activity (MIC) E. coli
Description: as §1

Bacillus subtilis BS01 = assay: Antibacterial assay, micro broth dilution; type: cell-based; conditions: read-out: Antibacterial Activity (MIC) B. subtilis
Description: as §1

[3] = tested on: Streptococcus agalactiae ATCC 13813; assay: Antibacterial assay, micro broth dilution; type: cell-based; conditions: read-out: Antibacterial Activity (MIC) S. agalactiae
Description: as §1

S. iniae = assay: Antibacterial assay, micro broth dilution; type: cell-based; conditions: Streptococcus iniae, read-out: Antibacterial Activity (MIC) S. iniae
Description: as §1

[4] = tested on: Pseudomonas aeruginosa ATCC 9027; assay: Antibacterial assay, micro broth dilution; type: cell-based; conditions: read-out: Antibacterial Activity (MIC) P. aeruginosa
Description: as §1

S. aureus MRSA = assay: Antibacterial assay, micro broth dilution; type: cell-based; conditions: Staphylococcus aureus, read-out: Antibacterial Activity (MIC) MRSA
Description: as §1

[5] = tested on: Staphylococcus aureus ATCC 6538; assay: Antibacterial assay, micro broth dilution; type: cell-based; conditions: read-out: Antibacterial Activity (MIC) S. aureus
Description: as §1

[6] = Cytotoxicity, CCK-8 method; type: cell-based; conditions: human
Description: (§2) Cytotoxic activity was evaluated using the human lung adenocarcinoma cell line H1975 and human hepatocellular carcinoma cell line HepG-2, using the CCK-8 method as described in our previous study. Briefly, each of the test compounds was dissolved in DMSO and further diluted to give final concentrations of 80, 40, 20, 10, 5, 2.5, and 1.25 μM, respectively. H1975 cells or HepG-2 cells (5 × 10^3 […]) were seeded in 96-well plates and treated with compounds at the indicated concentration for 24 hours and then 10 μL CCK-8 reagent was added to each well. The plates were incubated at 37 °C for another 4 hours. Finally, the optical density was measured at a wavelength of 450 nm with a Bio-Rad microplate reader. Dose–response curves were generated, and the IC50 values were calculated from the linear portion of log dose–response curves.

[7] = Cytotoxicity, CCK-8 method; type: cell-based; conditions: human; remark: listed apart in the source
Description: as §2

brine shrimps = assay: Brine shrimp lethality bioassay; type: in vivo; conditions: Table 3
Excerpt: The methods were the same as those used in our previous studies.

[8] = Antibacterial assays, summary in text over several pathogens; type: cell-based; conditions: read-out: MIC values against four pathogens
Description: as §1

Micrococcus luteus [9] = tested on: Micrococcus luteus; design: method as in PMID 25574740; conditions: cited from earlier work
Staphylococcus aureus = conditions: cited from earlier work
[10] = tested on: human ovarian cancer cells; conditions: read-out: IC50 against human ovarian cancer cells; cited from earlier work
[11] = micro broth dilution, LB medium, 24 hours at 37 °C
[12] = ATCC25922, micro broth dilution, LB medium, 24 hours at 37 °C
[13] = BS01, micro broth dilution, LB medium, 24 hours at 37 °C
[14] = ATCC13813, micro broth dilution, LB medium, 24 hours at 37 °C
[15] = ATCC9027, micro broth dilution, LB medium, 24 hours at 37 °C
[16] = ATCC6538, micro broth dilution, LB medium, 24 hours at 37 °C
[17] = HepG-2 cells, CCK-8, 24 hours treatment, read-out: Cytotoxicity (IC50) against HepG-2
[18] = H1975 cells, CCK-8, 24 hours treatment, read-out: Cytotoxicity (IC50) against H1975

`CSS[C@@]12CC3=COC=C[C@H](OC(C)=O)[C@H]3N1C(=O)[C@]1(SC)CC3=COC=C[C@H](OC(C)=O)[C@H]3N1C2=O` [Compound 5, Lecanicillium E] showed an MIC (Micrococcus luteus [1]; [11]) of 40 µg/mL (≈ 70.6 µM), an MIC [2, 12] of 80 µg/mL (≈ 141 µM) and an MIC (Bacillus subtilis BS01; [13]) of 10 µg/mL (≈ 17.6 µM). For the same molecule, the MIC [3, 14] was 25 µg/mL (≈ 44.1 µM), the MIC (S. iniae; [11]) was 15 µg/mL (≈ 26.5 µM) and the MIC [4, 15] was over 80 µg/mL. It also gave an MIC (S. aureus MRSA; [11]) of over 80 µg/mL, an MIC [5, 16] of over 80 µg/mL and an IC50 at 24 h [6] of over 80 µM. The IC50 at 24 h [7] was 16.3 µM, the “Toxicity (TC50) Brine Shrimp” value (brine shrimps) was 40 µg/mL and the MIC [8] was 10 to 40 µg/mL (≈ 17.6 to 70.6 µM).
With `CS[C@@]12CC3=CC=C[C@H](O)[C@H]3N1C(=O)[C@]1(SC)CC3=COC=C[C@H](O)[C@H]3N1C2=O` [Compound 14, bisdethiobis(methylsulfanyl)deacetylapoaranotin] the MIC (Micrococcus luteus [1]; [11]) was over 80 µg/mL, the MIC [2, 12] was over 80 µg/mL and the MIC (Bacillus subtilis BS01; [13]) was over 80 µg/mL. The MIC [3, 14] was over 80 µg/mL, the MIC (S. iniae; [11]) was 40 µg/mL (≈ 92.1 µM) and the MIC [4, 15] was over 80 µg/mL. The MIC (S. aureus MRSA; [11]) was over 80 µg/mL, the MIC [5, 16] was over 80 µg/mL and the IC50 at 24 h [6] was over 80 µM. The IC50 at 24 h [7] was over 80 µM and the “Toxicity (TC50) Brine Shrimp” value (brine shrimps) was over 80 µg/mL.
`CS[C@@]12CC3=CC=C[C@H](OC(C)=O)[C@H]3N1C(=O)[C@]1(SC)CC3=CC=C[C@H](OC(C)=O)[C@H]3N1C2=O` [Compound 15, haematocin] showed an MIC (Micrococcus luteus [1]; 24 h) of over 80 µg/mL, an MIC ([2]; ATCC25922, 24 h) of over 80 µg/mL and an MIC (Bacillus subtilis BS01; BS01, 24 h) of 80 µg/mL (≈ 159 µM). It also gave an MIC ([3]; ATCC13813, 24 h) of over 80 µg/mL, an MIC (S. iniae; 24 h) of over 80 µg/mL and an MIC ([4]; ATCC9027, 24 h) of over 80 µg/mL. For the same molecule, the MIC (S. aureus MRSA; 24 h) was over 80 µg/mL, the MIC ([5]; ATCC6538, 24 h) was over 80 µg/mL and the IC50 at 24 h [6, 17] was over 80 µM. The IC50 at 24 h [7, 18] was over 80 µM and the “Toxicity (TC50) Brine Shrimp” value (brine shrimps) was over 80 µg/mL.
Molecule `CS[C@@]1(Cc2ccccc2)NC(=O)[C@]2(SC)CC3=COC=C[C@H](O)[C@H]3N2C1=O` [Compound 18, emestrin H] has an MIC (Micrococcus luteus [1]; 24 h) of over 80 µg/mL, an MIC ([2]; ATCC25922, 24 h) of over 80 µg/mL and an MIC (Bacillus subtilis BS01; BS01, 24 h) of 80 µg/mL (≈ 191 µM). It also gave an MIC ([3]; ATCC13813, 24 h) of over 80 µg/mL, an MIC (S. iniae; 24 h) of 40 µg/mL (≈ 95.6 µM) and an MIC ([4]; ATCC9027, 24 h) of over 80 µg/mL. For the same molecule, the MIC (S. aureus MRSA; 24 h) was over 80 µg/mL, the MIC ([5]; ATCC6538, 24 h) was over 80 µg/mL and the IC50 at 24 h [6, 17] was 41.2 µM. For the same molecule, the IC50 at 24 h [7, 18] was 50.6 µM and the “Toxicity (TC50) Brine Shrimp” value (brine shrimps) was over 80 µg/mL.
In the case of `CS[C@@]12C[C@H]3[C@@H]([C@@H](O)C=C[C@@H]3O)N1C(=O)[C@]1(SC)C[C@H]3[C@@H]([C@@H](O)C=C[C@@H]3O)N1C2=O` [Penicibrocazine C], the “MIC against Micrococcus luteus” value (Micrococcus luteus [9]) is listed as 0.25 µg/mL (≈ 0.55 µM).
In the case of `O=C1N2[C@H]3C(=CC=C[C@@H]3O)C[C@]23SS[C@]12C[C@H]1[C@@H]([C@@H](O)C=C[C@@H]1O)N2C3=O` [brocazine G], the “MIC against Staphylococcus aureus” value (Staphylococcus aureus) is listed as 0.25 µg/mL (≈ 0.615 µM) and the IC50 [10] is listed as 0.66 µM.
In the case of `O=C(N[C@H](CO)[C@H](O)c1ccc([N+](=O)[O-])cc1)C(Cl)Cl` [chloromycetin], the “MIC against Micrococcus luteus” value (Micrococcus luteus [9]) is given as 2.0 µg/mL (≈ 6.19 µM).
